The values below come from PMC2840614 (Bioorganic & medicinal chemistry letters, 2010).

Assay [1] concerns the target T1, δ-opioid receptor (Mus musculus, UniProt P32300). The following applies: δ-antagonism in vitro; cited from earlier work.
Assay [2] has as its system μ-opioid receptor. Conditions: μ-antagonism in vitro; cited from earlier work.
The target of assay [3] is μ-opioid receptors (Cavia porcellus, UniProt A0ACM8Q262). Conditions: read-out: GPI IC50; agonism, guinea pig ileum; cited from earlier work.
Assay [4] deals with μ-opioid receptor (MOR) (Rattus norvegicus, UniProt P33535). Conditions: cited from earlier work; for Selectivity Kiδ/Kiμ: ratio of binding Ki values; for Ki: read-out: Receptor affinity Ki μ, rat brain membranes.
Assay [5] deals with δ-opioid receptor (DOR) (Rattus norvegicus, UniProt P33533). Conditions: cited from earlier work; for Ki: read-out: Receptor affinity Ki δ, rat brain membranes.
Assay [6] addresses T1, δ-opioid receptor. Conditions: read-out: MVD IC50; agonism, mouse vas deferens; cited from earlier work.
Assay [7] addresses T1, δ-opioid receptor. Briefly: Effect on deltorphin C stimulated GTPγS binding in NG108-15 cell membranes. The following applies: for GTPγS (pA2)δ: antagonism of deltorphin C stimulated GTPγS binding, NG108-15 cell membranes, NA: not active (>20.000nM). The assay is classed as biochemical.

Numbered stars: 1 amine (or outer) side, 2 acyl side, 3 side chain; on linkers, the order of the positions; unused ones are H or OH. Bridge positions count the residues as written; N and C are the ends. Square brackets hold non-standard residues; d marks the D form. Peptide text beside a SMILES is read from it. I, II: the chains in the order shown. Dmt = Cc1cc(O)cc(C)c1C[C@H](N)C(=O)O; Ethylenediamine = C(CN[*:2])N[*:1]; Tic = O=C(O)[C@@H]1Cc2ccccc2CN1

Chain of δ-opioid receptor (DOR) (P33533 whole entry): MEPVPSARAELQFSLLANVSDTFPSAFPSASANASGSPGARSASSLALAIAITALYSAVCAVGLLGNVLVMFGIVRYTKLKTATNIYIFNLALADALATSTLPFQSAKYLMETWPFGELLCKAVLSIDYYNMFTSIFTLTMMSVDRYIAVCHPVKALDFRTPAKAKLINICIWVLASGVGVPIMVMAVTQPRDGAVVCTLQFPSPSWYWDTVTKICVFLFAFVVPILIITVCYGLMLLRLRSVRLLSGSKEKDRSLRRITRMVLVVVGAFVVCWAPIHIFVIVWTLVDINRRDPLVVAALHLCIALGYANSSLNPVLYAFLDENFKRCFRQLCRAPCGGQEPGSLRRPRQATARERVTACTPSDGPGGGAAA
T1 sequence (P32300 whole entry): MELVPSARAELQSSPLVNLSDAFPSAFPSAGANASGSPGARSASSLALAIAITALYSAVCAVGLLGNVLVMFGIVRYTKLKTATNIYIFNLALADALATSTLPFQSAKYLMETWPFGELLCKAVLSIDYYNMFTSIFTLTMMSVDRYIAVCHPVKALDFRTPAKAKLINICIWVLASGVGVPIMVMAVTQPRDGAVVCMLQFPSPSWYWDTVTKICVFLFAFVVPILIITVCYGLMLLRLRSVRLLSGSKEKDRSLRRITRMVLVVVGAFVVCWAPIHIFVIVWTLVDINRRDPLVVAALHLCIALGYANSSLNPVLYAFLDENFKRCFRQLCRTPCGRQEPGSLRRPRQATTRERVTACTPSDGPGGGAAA
Chain of μ-opioid receptor (MOR) (P33535 whole entry): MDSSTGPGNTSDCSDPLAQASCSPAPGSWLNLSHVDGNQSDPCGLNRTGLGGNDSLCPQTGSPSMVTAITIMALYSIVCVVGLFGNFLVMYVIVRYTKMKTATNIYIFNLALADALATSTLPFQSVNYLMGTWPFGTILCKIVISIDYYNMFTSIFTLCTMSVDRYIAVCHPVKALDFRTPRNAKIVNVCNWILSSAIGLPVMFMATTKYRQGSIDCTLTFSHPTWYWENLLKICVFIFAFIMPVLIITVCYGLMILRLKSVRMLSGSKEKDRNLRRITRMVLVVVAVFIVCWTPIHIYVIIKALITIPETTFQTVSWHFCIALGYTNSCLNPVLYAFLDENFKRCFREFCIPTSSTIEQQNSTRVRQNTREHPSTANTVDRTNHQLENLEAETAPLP
Chain of μ-opioid receptors (A0ACM8Q262 1-400): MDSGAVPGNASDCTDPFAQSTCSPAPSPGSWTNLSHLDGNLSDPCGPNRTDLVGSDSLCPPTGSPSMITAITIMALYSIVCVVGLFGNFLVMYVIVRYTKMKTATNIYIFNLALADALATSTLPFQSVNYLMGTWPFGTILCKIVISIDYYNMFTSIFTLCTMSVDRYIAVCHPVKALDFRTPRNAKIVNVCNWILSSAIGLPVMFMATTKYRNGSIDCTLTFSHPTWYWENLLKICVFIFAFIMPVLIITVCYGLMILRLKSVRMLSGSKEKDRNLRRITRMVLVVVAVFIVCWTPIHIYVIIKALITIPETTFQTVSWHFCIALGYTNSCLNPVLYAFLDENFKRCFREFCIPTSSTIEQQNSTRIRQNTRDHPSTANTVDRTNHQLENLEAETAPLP

Consider `Cc1cc(O)cc(C)c1CC(N)C(=O)N1Cc2ccccc2CC1C(=O)NCCCCCCNC(=O)C1Cc2ccccc2CN1C(=O)C(N)Cc1c(C)cc(O)cc1C` (stereo not drawn) [1,6-bis[H-Dmt-Tic-NH]hexane], for which the “pA2 δ” value in assay [1] is reported as 10.62.
With `Cc1cc(O)cc(C)c1CC(N)C(=O)N1Cc2ccccc2CC1C(=O)NCCCCNC(=O)C1Cc2ccccc2CN1C(=O)C(N)Cc1c(C)cc(O)cc1C` (stereo not drawn) [butylene-bis[Dmt-Tic-NH]], the “pA2 μ” value in assay [2] is reported as 6.99. In assay [1], the “pA2 δ” value is listed as 10.51.
As to `Cc1cc(O)cc(C)c1C[C@H](N)C(=O)N[C@H]1Cc2ccccc2CN(CC(=O)NCc2ccccc2)C1=O` [compound 6, H-Dmt-Aba-Gly-NH-Bn], the IC50 in assay [3] was 51 ± 5 nM; in assay [6], 830 ± 70 nM. In addition, the “Selectivity Kiδ/Kiμ” value in assay [4] is reported as 24. In addition, the Ki in assay [4] was 0.46 ± 0.07 nM; in assay [5] it was 11 ± 2.3 nM.
Consider `Cc1cc(O)cc(C)c1C[C@H](N)C(=O)N[C@@H]1Cc2c([nH]c3ccccc23)CN(CC(=O)NCc2ccccc2)C1=O` [compound 7, H-Dmt-D-Aia-Gly-NH-Bn], for which the figures for the IC50 in assay [3] and in assay [6] were 14.9 ± 1.6 nM and 1500 ± 139 nM, respectively. Besides, in assay [4], the “Selectivity Kiδ/Kiμ” value is recorded as 48. In addition, the Ki in assay [4] is 3.35 ± 0.28 nM; in assay [5] it was 160 ± 23 nM.
`Cc1cc(O)cc(C)c1C[C@@H](C(=O)N[C@H]1Cc2c([nH]c3ccccc23)CN(CC(=O)O)C1=O)N(C)C` [compound 8, Me2Dmt-Aia-Gly-OH]: the Ki in assay [4] was 874 ± 100 nM; in assay [5], 6.64 ± 0.89 nM. In addition, the “Selectivity Kiμ/Kiδ” value in assay [5] (ratio of binding Ki values) was 132.
For `Cc1cc(O)cc(C)c1C[C@H](N)C(=O)N1Cc2ccccc2C[C@H]1C(=O)NCCNC(=O)[C@@H]1Cc2ccccc2CN1C(=O)[C@@H](N)Cc1c(C)cc(O)cc1C` [compound 9, ethylene-bis(H-Dmt-Tic-NH)] (I: H-[Dmt]-[Tic] / II: H-[Dmt]-[Tic]; linker I:C-II:C via Ethylenediamine), in assay [7], the Kb was found to be 0.912 nM and the “GTPγS (pA2)δ” value worked out at 9.04.
In the case of `Cc1cc(O)cc(C)c1C[C@H](N)C(=O)N[C@@H]1Cc2c([nH]c3ccccc23)CN(CC(=O)NCCNC(=O)CN2Cc3[nH]c4ccccc4c3C[C@@H](NC(=O)[C@@H](N)Cc3c(C)cc(O)cc3C)C2=O)C1=O` [compound 11, ethylene-bis(H-Dmt-D-Aia-Gly-NH)], the “GTPγS (pA2)δ” value in assay [7] was “unable to diminish the GTPγS binding”.
On to `Cc1cc(O)cc(C)c1C[C@H](N)C(=O)N1Cc2ccccc2C[C@H]1C(=O)NCCN(CCNC(=O)[C@@H]1Cc2ccccc2CN1C(=O)[C@@H](N)Cc1c(C)cc(O)cc1C)CCNC(=O)[C@@H]1Cc2ccccc2CN1C(=O)[C@@H](N)Cc1c(C)cc(O)cc1C` [compound 15, tris-[H-Dmt-Tic-NH-ethylene]-N], for which, in assay [7], the Kb was 2.29 nM.
Still for that read-out and setting: the value for `Cc1cc(O)cc(C)c1C[C@H](N)C(=O)N[C@H]1Cc2ccccc2CN(CC(=O)NCCN(CCNC(=O)CN2Cc3ccccc3C[C@H](NC(=O)[C@@H](N)Cc3c(C)cc(O)cc3C)C2=O)CCNC(=O)CN2Cc3ccccc3C[C@H](NC(=O)[C@@H](N)Cc3c(C)cc(O)cc3C)C2=O)C1=O` [compound 16, tris-[H-Dmt-Aba-Gly-NH-ethylene]-N] was 22.9 nM.

The IC50 is the concentration that inhibits the measured activity by half. What is called Ki is a measure of affinity in units of concentration, obtained from inhibition or displacement.
